These compounds were tested against T1, ΔF508-CFTR (Homo sapiens, UniProt P13569, DEL508-508) (assay: hBE equivalent current (Ieq) assay, AUC of equivalent chloride current). Conditions: compound at 10 uM, 24 h, primary hBE cells homozygous ΔF508; AUC increase relative to VX-809 at 1 uM.
T1 construct: Primary lung epithelial cells (hBEs) homozygous for the Cystic Fibrosis-causing ΔF508 mutation; endogenous in cells; host or cells: primary lung (bronchial) epithelial cells (hBE) homozygous for ΔF508, differentiated at an air-liquid interface
T1 sequence (P13569 with tags, fused parts or gaps DEL508-508): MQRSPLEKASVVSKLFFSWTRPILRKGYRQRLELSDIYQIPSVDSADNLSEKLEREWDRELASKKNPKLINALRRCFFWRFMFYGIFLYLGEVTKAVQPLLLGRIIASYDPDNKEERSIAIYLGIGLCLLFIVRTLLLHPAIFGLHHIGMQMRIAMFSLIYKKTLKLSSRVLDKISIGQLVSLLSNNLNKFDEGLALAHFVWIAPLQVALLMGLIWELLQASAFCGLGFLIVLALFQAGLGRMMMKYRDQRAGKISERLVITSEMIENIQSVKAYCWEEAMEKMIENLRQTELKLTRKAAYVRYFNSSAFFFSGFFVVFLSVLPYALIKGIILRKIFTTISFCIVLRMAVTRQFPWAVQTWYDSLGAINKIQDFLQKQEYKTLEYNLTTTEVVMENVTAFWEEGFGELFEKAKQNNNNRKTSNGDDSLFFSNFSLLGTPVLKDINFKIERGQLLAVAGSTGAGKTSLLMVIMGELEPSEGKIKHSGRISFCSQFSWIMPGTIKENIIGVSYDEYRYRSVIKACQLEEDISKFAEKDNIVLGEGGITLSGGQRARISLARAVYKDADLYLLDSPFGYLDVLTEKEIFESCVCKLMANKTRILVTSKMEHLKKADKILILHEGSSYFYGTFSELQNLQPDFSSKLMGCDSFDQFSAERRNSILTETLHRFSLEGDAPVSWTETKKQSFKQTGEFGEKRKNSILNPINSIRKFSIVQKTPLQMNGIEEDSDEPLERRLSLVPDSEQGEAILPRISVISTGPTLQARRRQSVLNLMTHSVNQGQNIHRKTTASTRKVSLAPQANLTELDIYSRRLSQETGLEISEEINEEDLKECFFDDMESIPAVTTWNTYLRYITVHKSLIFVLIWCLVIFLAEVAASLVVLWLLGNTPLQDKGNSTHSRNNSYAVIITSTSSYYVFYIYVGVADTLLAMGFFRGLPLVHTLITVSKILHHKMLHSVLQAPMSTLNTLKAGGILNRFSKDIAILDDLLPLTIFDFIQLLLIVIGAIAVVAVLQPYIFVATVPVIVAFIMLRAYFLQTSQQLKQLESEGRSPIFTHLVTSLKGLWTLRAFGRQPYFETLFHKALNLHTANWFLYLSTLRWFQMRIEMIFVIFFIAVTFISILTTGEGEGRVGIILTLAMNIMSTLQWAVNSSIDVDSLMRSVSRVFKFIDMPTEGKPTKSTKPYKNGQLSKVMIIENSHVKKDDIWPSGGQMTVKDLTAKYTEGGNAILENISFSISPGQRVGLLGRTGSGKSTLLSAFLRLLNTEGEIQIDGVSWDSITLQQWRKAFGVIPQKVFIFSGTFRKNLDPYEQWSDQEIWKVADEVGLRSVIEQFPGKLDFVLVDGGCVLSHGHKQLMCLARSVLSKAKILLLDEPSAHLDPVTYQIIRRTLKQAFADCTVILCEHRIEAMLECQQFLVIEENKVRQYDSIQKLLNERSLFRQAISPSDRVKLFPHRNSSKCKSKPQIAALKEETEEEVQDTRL
Assay type: cell-based
Description: Primary lung epithelial cells homozygous for the Cystic Fibrosis-causing ΔF508 mutation were differentiated for a minimum of 4 weeks in an air-liquid interface on Costar 24 well HTS filter plates prior to the equivalent current (Ieq) measurements. Cells were apically mucus-washed for 30 minutes 24 h prior to treatment with compounds. The basolateral media was removed and replaced with media containing the compound of interest diluted to its final concentration from DMSO stocks. Treated cells were incubated at 37° C. and 5% CO2 for 24 hours. At the end of the treatment period, the media was changed to the Ieq experimental solution for 30 minutes before the experiment and plates are maintained in a CO2-free incubator during this period. The plates containing the cells were then placed in pre-warmed heating blocks at 36° C.±0.5 for 15 minutes before measurements are taken. The transepithelial voltage (VT) and conductance (GT) were measured using a custom 24 channel current clamp (TECC-24) with 24 well electrode manifold. The Ieq assay measurements were made following additions with standardized time periods: • 1. The baseline VT and GT values were measured for approximately 20 minutes. • 2. Benzamil was added to block ENaC for 15 minutes. • 3. Forskolin plus VX-770 were added to maximally activate ΔF508-CFTR for 27 minutes. • 4. Bumetanide was added to inhibit the NaK2Cl cotransporter and shut-off secretion of chloride. The activity data captured was the area under the curve (AUC) for the traces of the equivalent chloride current. The AUC was collected from the time of the forskolin/VX-770 addition until the inhibition by bumetanide addition. Correction in response to compound treatment was scored as the increase in the AUC for compound-treated samples over that of vehicle-treated samples. (++ indicates activity ≧25% run at 10 uM of VX-809 at 1 uM, + indicates activity 10 to ≦25% run at 10 uM of VX-809 at 1 uM.

Compound | Ieq hBE Activity
O=C(NCCNC(=O)c1cc(-c2ccccc2)on1)c1cccnc1 [Compound 373] | ++ (++ indicates activity ≧25% run at 10 uM of VX-809 at 1 uM)
O=C(NCC1CCCO1)c1cc(-c2ccco2)on1 (centres unmarked) [Compound 321] | + (+ indicates activity 10 to ≦25% run at 10 uM of VX-809 at 1 uM)
O=C(NCC1CCOC1)c1cc(-c2ccccc2)on1 (centres unmarked) [Compound 52] | ++ (++ indicates activity ≧25% run at 10 uM of VX-809 at 1 uM)
O=C(NCC1CCOC1)c1cc(-c2cccs2)on1 (centres unmarked) [Compound 226] | ++ (++ indicates activity ≧25% run at 10 uM of VX-809 at 1 uM)
COCCNC(=O)c1cc(-c2ccccc2)on1 [Compound 329A] | ++ (++ indicates activity ≧25% run at 10 uM of VX-809 at 1 uM)
Cn1ccc(CCCNC(=O)c2cc(-c3ccccc3)on2)c1 [Compound 198] | ++ (++ indicates activity ≧25% run at 10 uM of VX-809 at 1 uM)
O=C(NCCc1ccccc1)c1cc(-c2ccccc2)on1 [Compound 95] | ++ (++ indicates activity ≧25% run at 10 uM of VX-809 at 1 uM)
O=C(NCC(O)COCc1ccccc1)c1cc(-c2ccccc2)on1 (centres unmarked) [Compound 172] | + (+ indicates activity 10 to ≦25% run at 10 uM of VX-809 at 1 uM)
O=C(NCCCN1CCOCC1)c1cc(-c2ccccc2F)on1 [Compound 135] | + (+ indicates activity 10 to ≦25% run at 10 uM of VX-809 at 1 uM)
Cn1nccc1CCCNC(=O)c1cc(-c2ccccc2)on1 [Compound 188] | ++ (++ indicates activity ≧25% run at 10 uM of VX-809 at 1 uM)
O=C(NCC(O)c1ccncc1)c1cc(-c2ccccc2)on1 (centres unmarked) [Compound 7] | ++ (++ indicates activity ≧25% run at 10 uM of VX-809 at 1 uM)
Cn1ccc(CNC(=O)c2cc(-c3ccccc3)on2)n1 [Compound 27] | + (+ indicates activity 10 to ≦25% run at 10 uM of VX-809 at 1 uM)
O=C(NCC1CCCO1)c1cc(-c2ccccc2)on1 (centres unmarked) [Compound 1] | ++ (++ indicates activity ≧25% run at 10 uM of VX-809 at 1 uM)
O=C(N[C@H]1CC[C@H](O)CC1)c1cc(-c2ccccc2)on1 [Compound 343] | + (+ indicates activity 10 to ≦25% run at 10 uM of VX-809 at 1 uM)
O=C(NCCCn1ccnc1)c1cc(-c2ccc(F)cc2)on1 [Compound 15] | + (+ indicates activity 10 to ≦25% run at 10 uM of VX-809 at 1 uM)
O=C(NCCCn1nnc2ccccc21)c1cc(-c2ccccc2)on1 [Compound 205] | ++ (++ indicates activity ≧25% run at 10 uM of VX-809 at 1 uM)
NS(=O)(=O)c1ccc(CCNC(=O)c2cc(-c3ccccc3)on2)cc1 [Compound 97] | ++ (++ indicates activity ≧25% run at 10 uM of VX-809 at 1 uM)
O=C(NCCCN1CCOCC1)c1cc(-c2cccs2)on1 [Compound 14] | ++ (++ indicates activity ≧25% run at 10 uM of VX-809 at 1 uM)
O=C(NCCCc1cccnc1)c1cc(-c2ccccc2)on1 [Compound 207] | ++ (++ indicates activity ≧25% run at 10 uM of VX-809 at 1 uM)

Compound | Ieq hBE Activity
O=C(NCCn1nccn1)c1cc(-c2cccs2)on1 [Compound 228] | ++ (++ indicates activity ≧25% run at 10 uM of VX-809 at 1 uM)
O=C(NCCc1cnccn1)c1cc(-c2ccccc2)on1 [Compound 6] | ++ (++ indicates activity ≧25% run at 10 uM of VX-809 at 1 uM)
CSCc1noc(CNC(=O)c2cc(-c3ccccc3)on2)n1 [Compound 36] | ++ (++ indicates activity ≧25% run at 10 uM of VX-809 at 1 uM)
O=C(NCCCn1nccc1C1CC1)c1cc(-c2ccccc2)on1 [Compound 200] | ++ (++ indicates activity ≧25% run at 10 uM of VX-809 at 1 uM)
O=C(NCCc1ccccn1)c1cc(-c2ccccc2)on1 [Compound 100] | + (+ indicates activity 10 to ≦25% run at 10 uM of VX-809 at 1 uM)
CCNC(=O)c1cc(-c2ccccc2)on1 [Compound 336] | ++ (++ indicates activity ≧25% run at 10 uM of VX-809 at 1 uM)
O=C(NCCc1csc(-c2ncccn2)n1)c1cc(-c2ccccc2)on1 [Compound 110] | ++ (++ indicates activity ≧25% run at 10 uM of VX-809 at 1 uM)
CCCCNC(=O)c1cc(-c2ccc(F)cc2)on1 [Compound 342] | ++ (++ indicates activity ≧25% run at 10 uM of VX-809 at 1 uM)
COCc1noc(CNC(=O)c2cc(-c3ccccc3)on2)n1 [Compound 35] | ++ (++ indicates activity ≧25% run at 10 uM of VX-809 at 1 uM)
O=C(NCCn1ccnn1)c1cc(-c2ccccc2)on1 [Compound 376] | ++ (++ indicates activity ≧25% run at 10 uM of VX-809 at 1 uM)
O=C(NCCc1ccncc1)c1cc(-c2ccccc2)on1 [Compound 102] | ++ (++ indicates activity ≧25% run at 10 uM of VX-809 at 1 uM)
O=C(NCCN1CCOC1=O)c1cc(-c2ccccc2)on1 [Compound 5] | ++ (++ indicates activity ≧25% run at 10 uM of VX-809 at 1 uM)
O=C(NCCc1ccncc1)c1cc(-c2cccs2)on1 [Compound 234] | ++ (++ indicates activity ≧25% run at 10 uM of VX-809 at 1 uM)
COCCNC(=O)c1cc(-c2ccccc2F)on1 [Compound 150] | + (+ indicates activity 10 to ≦25% run at 10 uM of VX-809 at 1 uM)
O=C(NCCc1c[nH]c2ccccc12)c1cc(-c2ccccc2)on1 [Compound 120] | ++ (++ indicates activity ≧25% run at 10 uM of VX-809 at 1 uM)
CCc1ncc(CCNC(=O)c2cc(-c3ccccc3)on2)s1 [Compound 374] | + (+ indicates activity 10 to ≦25% run at 10 uM of VX-809 at 1 uM)
COCCNC(=O)c1cc(-c2ccc(C(F)(F)F)cc2)on1 [Compound 161] | + (+ indicates activity 10 to ≦25% run at 10 uM of VX-809 at 1 uM)
COCc1noc(CCNC(=O)c2cc(-c3ccccc3)on2)n1 [Compound 11] | ++ (++ indicates activity ≧25% run at 10 uM of VX-809 at 1 uM)
O=C(NCCc1cccnc1)c1cc(-c2cccs2)on1 [Compound 233] | + (+ indicates activity 10 to ≦25% run at 10 uM of VX-809 at 1 uM)

Compound | Ieq hBE Activity
O=C(NCCN1CCOCC1)c1cc(-c2ccccc2)on1 [Compound 4] | ++ (++ indicates activity ≧25% run at 10 uM of VX-809 at 1 uM)
COCCNC(=O)c1cc(-c2ccccc2OC)on1 [Compound 153] | ++ (++ indicates activity ≧25% run at 10 uM of VX-809 at 1 uM)
O=C(NCCN1C(=O)CSC1=O)c1cc(-c2ccccc2)on1 [Compound 94] | + (+ indicates activity 10 to ≦25% run at 10 uM of VX-809 at 1 uM)
O=C(NCCCN1CCOCC1)c1cc(-c2ccccc2)on1 [Compound 13] | ++ (++ indicates activity ≧25% run at 10 uM of VX-809 at 1 uM)
O=C(NCc1ccccn1)c1cc(-c2ccccc2)on1 [Compound 41] | + (+ indicates activity 10 to ≦25% run at 10 uM of VX-809 at 1 uM)
O=C(NCCCn1cncn1)c1cc(-c2ccccc2)on1 [Compound 192] | ++ (++ indicates activity ≧25% run at 10 uM of VX-809 at 1 uM)
CCCn1cc(CNC(=O)c2cc(-c3ccccc3)on2)cn1 [Compound 30] | + (+ indicates activity 10 to ≦25% run at 10 uM of VX-809 at 1 uM)
Cc1nnc(CCNC(=O)c2cc(-c3ccccc3)on2)s1 [Compound 8] | ++ (++ indicates activity ≧25% run at 10 uM of VX-809 at 1 uM)
O=C(NCCCn1ncc2ccccc21)c1cc(-c2ccccc2)on1 [Compound 204] | ++ (++ indicates activity ≧25% run at 10 uM of VX-809 at 1 uM)
O=C(NCCCCc1ccncc1)c1cc(-c2cccs2)on1 [Compound 239] | + (+ indicates activity 10 to ≦25% run at 10 uM of VX-809 at 1 uM)
Cn1cncc1CCCNC(=O)c1cc(-c2ccccc2)on1 [Compound 195] | ++ (++ indicates activity ≧25% run at 10 uM of VX-809 at 1 uM)
O=C(NCCn1nccn1)c1cc(-c2ccccc2)on1 [Compound 115] | ++ (++ indicates activity ≧25% run at 10 uM of VX-809 at 1 uM)
COCCNC(=O)c1cc(-c2ccc(F)cc2)on1 [Compound 19] | ++ (++ indicates activity ≧25% run at 10 uM of VX-809 at 1 uM)
Cn1cnc(CCCNC(=O)c2cc(-c3ccccc3)on2)c1 [Compound 197] | ++ (++ indicates activity ≧25% run at 10 uM of VX-809 at 1 uM)
O=C(NCCCn1cccc1)c1cc(-c2ccccc2)on1 [Compound 186] | ++ (++ indicates activity ≧25% run at 10 uM of VX-809 at 1 uM)
O=C(NCCCC(F)(F)F)c1cc(-c2cccs2)on1 [Compound 223] | ++ (++ indicates activity ≧25% run at 10 uM of VX-809 at 1 uM)
Cc1nn2cc(CCNC(=O)c3cc(-c4ccccc4)on3)nc2s1 [Compound 114] | ++ (++ indicates activity ≧25% run at 10 uM of VX-809 at 1 uM)
CN1CCN(CCNC(=O)c2cc(-c3ccccc3)on2)CC1 [Compound 92] | ++ (++ indicates activity ≧25% run at 10 uM of VX-809 at 1 uM)

Reference: US20160151335A1, “METHODS OF MODULATING CFTR ACTIVITY” (PROTEOSTASIS THERAPEUTICS, INC., priority 2013, published 2016)
